Measurements taken from ChEMBL document CHEMBL2016455, “5-Benzothiazole substituted pyrimidine derivatives as HCV replication (replicase) inhibitors” (Bioorg Med Chem Lett, 2012).

Experiments:
Hepatitis C virus = test: Antiviral activity against Hepatitis C virus isolate con1 1b infected in human hepatoma cells replicon cells after 3 days by RT-PCR analysis; type: functional, organism-based, Hepacivirus hominis, genotype 1b Con1; conditions: Hepatitis C virus, genotype 1b Con1, 72 h
[1] = Cytotoxicity against human hepatoma cells after 3 days by MTS assay; type: cell-based; conditions: human hepatoma cells
[2] = Cytotoxicity against human hepatoma cells assessed as decrease in RNA level after 3 days by RT-PCR analysis; type: cell-based; conditions: human hepatoma cells
[3] = AUC (0 to 6 hrs) in rat at 10 mg/kg, po; type: ADME, organism-based; parameters: time < 6 hr, dose 10 mg/kg, route oral; conditions: plasma
Liver = test: Drug uptake in rat liver per mg tissue at 10 mg/kg, po after 6 hrs; type: ADME, organism-based; parameters: dose 10 mg/kg, route oral; conditions: in vivo

SMILES	EC50 (Hepatitis C virus) [µM]	AUC(0-t) at 6 h [3] [µM·h]	Drug uptake (Liver) [ng/g]	CC50 at 72 h [1] [µM]	CC50 at 72 h [2] [µM]
Nc1nc(Cl)c(-c2ccccc2)c(N[C@@H]2C[C@H](CO)[C@@H](O)[C@H]2O)n1	> 25	–	–	> 25	–
Nc1nc(Cl)c(-c2ccccn2)c(N[C@@H]2C[C@H](CO)[C@@H](O)[C@H]2O)n1	> 25	–	–	> 25	> 25
Nc1nc(Cl)c(-c2cnccn2)c(N[C@@H]2C[C@H](CO)[C@@H](O)[C@H]2O)n1	> 25	–	–	> 25	–
Nc1nc(Cl)c(-c2ccco2)c(N[C@@H]2C[C@H](CO)[C@@H](O)[C@H]2O)n1	4	–	–	> 25	> 25
Nc1nc(Cl)c(-c2cc3ccccc3s2)c(N[C@@H]2C[C@H](CO)[C@@H](O)[C@H]2O)n1	> 25	–	–	–	> 25
Nc1nc(Cl)c(-c2nc3ccc(F)cc3s2)c(N[C@@H]2C[C@H](CO)[C@@H](O)[C@H]2O)n1	0.18	–	–	> 25	> 25
CCOc1ccc2nc(-c3c(Cl)nc(N)nc3N[C@@H]3C[C@H](CO)[C@@H](O)[C@H]3O)sc2c1	0.03	–	–	25	> 25
CNc1ccc2nc(-c3c(Cl)nc(N)nc3N[C@@H]3C[C@H](CO)[C@@H](O)[C@H]3O)sc2c1	0.05	–	–	16	6
CN(C)c1ccc2nc(-c3c(Cl)nc(N)nc3N[C@@H]3C[C@H](CO)[C@@H](O)[C@H]3O)sc2c1	1	–	–	> 25	> 25
Cc1nc(N)nc(N[C@@H]2C[C@H](CO)[C@@H](O)[C@H]2O)c1-c1nc2ccccc2s1	0.13	4.7	–	25	4
CCc1nc(N(C)C)nc(N[C@@H]2C[C@H](CO)[C@@H](O)[C@H]2O)c1-c1nc2ccccc2s1	13	–	–	> 25	> 25
Cc1nc(NCCNS(C)(=O)=O)nc(N[C@@H]2C[C@H](CO)[C@@H](O)[C@H]2O)c1-c1nc2ccccc2s1	0.26	–	–	> 25	> 25
Cc1nc(N[C@H](C)C(F)(F)F)nc(N[C@@H]2C[C@H](CO)[C@@H](O)[C@H]2O)c1-c1nc2ccccc2s1	0.1	–	–	19	21
Cc1nc(NCCCC(F)(F)F)nc(N[C@@H]2C[C@H](CO)[C@@H](O)[C@H]2O)c1-c1nc2ccccc2s1	0.03	2.1	2230	4	3
Cc1nc(Nc2ccccc2)nc(N[C@@H]2C[C@H](CO)[C@@H](O)[C@H]2O)c1-c1nc2ccccc2s1	0.28	1.6	970	> 25	> 25
Cc1nc(Nc2ncco2)nc(N[C@@H]2C[C@H](CO)[C@@H](O)[C@H]2O)c1-c1nc2ccccc2s1	4.5	–	–	> 25	> 25
Cc1nc(NCc2cccs2)nc(N[C@@H]2C[C@H](CO)[C@@H](O)[C@H]2O)c1-c1nc2ccccc2s1	0.006	0.5	180	5	6
Cc1nc(NCc2ccccn2)nc(N[C@@H]2C[C@H](CO)[C@@H](O)[C@H]2O)c1-c1nc2ccccc2s1	0.03	3.4	125	18	13

Now from value to compound, other results behind:

EC50 (Hepatitis C virus) [µM]	AUC(0-t) at 6 h [3] [µM·h]	Drug uptake (Liver) [ng/g]	SMILES	CC50 at 72 h [1] [µM]	CC50 at 72 h [2] [µM]
> 25	–	–	Nc1nc(Cl)c(-c2cccs2)c(N[C@@H]2C[C@H](CO)[C@@H](O)[C@H]2O)n1	–	> 25
> 25	–	–	Nc1nc(Cl)c(-c2ncco2)c(N[C@@H]2C[C@H](CO)[C@@H](O)[C@H]2O)n1	> 25	> 25
3	–	–	Nc1nc(Cl)c(-c2nccs2)c(N[C@@H]2C[C@H](CO)[C@@H](O)[C@H]2O)n1	> 25	> 25
7	–	–	Nc1nc(Cl)c(-c2cc3ccccc3[nH]2)c(N[C@@H]2C[C@H](CO)[C@@H](O)[C@H]2O)n1	25	–
0.3	–	–	Nc1nc(Cl)c(-c2cc3ccccc3o2)c(N[C@@H]2C[C@H](CO)[C@@H](O)[C@H]2O)n1	> 25	–
0.05	–	–	Nc1nc(Cl)c(-c2nc3ccccc3o2)c(N[C@@H]2C[C@H](CO)[C@@H](O)[C@H]2O)n1	15	12
0.02	0.08	–	Nc1nc(Cl)c(-c2nc3ccccc3s2)c(N[C@@H]2C[C@H](CO)[C@@H](O)[C@H]2O)n1	18	14
0.65	–	–	Nc1nc(Cl)c(-c2nc3ccc(Cl)cc3s2)c(N[C@@H]2C[C@H](CO)[C@@H](O)[C@H]2O)n1	> 25	16
0.045	–	–	COc1ccc2nc(-c3c(Cl)nc(N)nc3N[C@@H]3C[C@H](CO)[C@@H](O)[C@H]3O)sc2c1	> 25	> 25
0.02	–	–	CNc1ccc2sc(-c3c(Cl)nc(N)nc3N[C@@H]3C[C@H](CO)[C@@H](O)[C@H]3O)nc2c1	14	20
0.035	–	–	CN(C)c1ccc2sc(-c3c(Cl)nc(N)nc3N[C@@H]3C[C@H](CO)[C@@H](O)[C@H]3O)nc2c1	21	25
0.31	–	–	CCCNc1nc(C)c(-c2nc3ccccc3s2)c(N[C@@H]2C[C@H](CO)[C@@H](O)[C@H]2O)n1	> 25	> 25
0.9	–	–	Cc1nc(NCCNC(=O)NC(C)(C)C)nc(N[C@@H]2C[C@H](CO)[C@@H](O)[C@H]2O)c1-c1nc2ccccc2s1	> 25	> 25
0.33	–	–	Cc1nc(Nc2ccncc2)nc(N[C@@H]2C[C@H](CO)[C@@H](O)[C@H]2O)c1-c1nc2ccccc2s1	7	7
0.77	–	–	Cc1nc(Nc2nccs2)nc(N[C@@H]2C[C@H](CO)[C@@H](O)[C@H]2O)c1-c1nc2ccccc2s1	13	15
0.03	2.2	430	Cc1nc(NCc2ccccc2)nc(N[C@@H]2C[C@H](CO)[C@@H](O)[C@H]2O)c1-c1nc2ccccc2s1	7	9
0.015	0.2	75	Cc1nc(NCc2ccsc2)nc(N[C@@H]2C[C@H](CO)[C@@H](O)[C@H]2O)c1-c1nc2ccccc2s1	4	6
0.03	0.5	150	Cc1nc(NCc2nccs2)nc(N[C@@H]2C[C@H](CO)[C@@H](O)[C@H]2O)c1-c1nc2ccccc2s1	21	23
0.015	0.02	10	Cc1nc(NCc2cccnc2)nc(N[C@@H]2C[C@H](CO)[C@@H](O)[C@H]2O)c1-c1nc2ccccc2s1	11	5
0.03	0.1	100	Cc1nc(NCc2ccncc2)nc(N[C@@H]2C[C@H](CO)[C@@H](O)[C@H]2O)c1-c1nc2ccccc2s1	9	7
